According to patent US9845292B2 (Max-Planck-Gesellschaft zur Förderung der Wissenschaften …, priority 2013, dated 2017):
Where two headings read alike, the source gives them in different places.

Tests used:
FKBP51 = molecular target: T1, FKBP51 (Homo sapiens, UniProt Q13451); test: Fluorescence polarization binding assay, FK1-domain of FKBP51WT with tracer F4; design: Purified FK1-domains of FKBP51WT (4.5 nM) with F4 (3 nM), FKBP52WT (400 nM) with F2 (20 nM); made in house; host or cells: E. coli BL21(DE3)pLysS; conditions: read-out: Affinity(Ki) for FKBP51
T1 sequence (Q13451 42-130 limits assumed): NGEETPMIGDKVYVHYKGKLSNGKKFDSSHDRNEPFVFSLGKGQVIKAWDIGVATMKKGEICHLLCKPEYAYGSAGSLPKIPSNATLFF
Description: (§1) The target protein was also diluted in this assay buffer at double the highest concentration required for the final sample. This protein stock was used for a 1:1 serial dilution.
(§2) The inventive compound was dissolved in DMSO to reach a 100-times concentrated stock solution. This was used for a 1:1 serial dilution in DMSO.
(§3) For FKBP12, −51, and −52 the binding assays were performed in duplicates in the plate format.
(§4) The competition curves were analyzed by using SigmaPlot9. Data were fitted to a four parameter logistic curve to deduce the IC50 values. […] A=(Amax−Amin)/[L]t×(([L]t×((2×((Klig+Kcomp+[L]t+[I]t−[R]t)^2−3×(Kcomp×([L]t−[R]t)+Klig×([I]t−[R]t)+Klig×Kcomp))^0.5×COS(ARCCOS((−2×(Klig+Kcomp+[L]t+[I]t−[R]t)^3+9×(Klig+Kcomp+[L]t+[I]t−[R]t)×(Kcomp×([L]t−[R]t)+Klig×([I]t−[R]t)+Klig×Kcomp)−27×(−1×Klig×Kcomp×[R]t))/(2×((((Klig+Kcomp+[L]t+[I]t−[R]t)^2−3×(Kcomp×([L]t−[R]t)+Klig×([I]t−[R]t)+Klig×Kcomp))^3)^0.5)))/3))−(Klig+Kcomp+[L]t+[I]t−[R]t)))/((3×Klig)+((2×((Klig+Kcomp+[L]t+[I]t−[R]t)^2−3×(Kcomp×([L]t−[R]t)+Klig×([I]t−[R]t)+Klig×Kcomp))^0.5×COS(ARCCOS((−2×(Klig+Kcomp+[L]t+[I]t−[R]t)^3+9×(Klig+Kcomp+[L]t+[I]t−[R]t)×(Kcomp×([L]t−[R]t)+Klig×([I]t−[R]t)+Klig×Kcomp)−27×(−1×Klig×Kcomp×[R]t))/(2×((((Klig+Kcomp+[L]t+[I]t−[R]t)^2−3×(Kcomp×([L]t−[R]t)+Klig×([I]t−[R]t)+Klig×Kcomp))^3)^0.5)))/3))−(Klig+Kcomp+[L]t+[I]t−[R]t))))+Amin
(§5) In this equation Klig and Kcomp stand for the Kd values of the used tracer or competing inhibitor, [I]t is referring to the total concentration of the titrated inhibitor.
(§6) Inhibition constants were measured in a fluorescence polarization binding assay by titrating the compounds.

FKBP52 = molecular target: T2, FKBP52 (Homo sapiens, UniProt Q02790); test: Fluorescence polarization binding assay, FK1-domain of FKBP52WT with tracer F2 (selectivity FKBP51 vs. FKBP52); conditions: selectivity factor over FKBP52
T2 construct: Purified FK1-domains of FKBP51WT (4.5 nM) with F4 (3 nM), FKBP52WT (400 nM) with F2 (20 nM); implied by Ni-NTA purification) (N); made in house; host or cells: E. coli BL21(DE3)pLysS
T2 sequence (Q02790 50-138 limits assumed): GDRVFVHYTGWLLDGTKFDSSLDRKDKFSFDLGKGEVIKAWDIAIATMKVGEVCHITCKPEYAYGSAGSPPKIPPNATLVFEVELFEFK
Description: as §1, §2, §3, §4, §5
The Selectivity of the Compounds was Classified by Ki(FKBP51)/Ki(FKBP52)
as §6

[1] = FK1-domain of FKBP51WT (4.5 nM) with F4 (3 nM), A series
[2] = FKBP52WT (400 nM) with F2 (20 nM), A series

Row | Structure (SMILES) | Ki (FKBP51; compounds B01-C25) [µM] | Ki(FKBP51)/Ki(FKBP52) (FKBP52; compounds B01-C25) | Ki (FKBP51; [1]) [µM] | Ki(FKBP51)/Ki(FKBP52) (FKBP52; [2])
1 | COc1ccc(CC[C@@H](NC(=O)[C@@H]2CCCCN2C(=O)[C@H](c2cc(OC)c(OC)c(OC)c2)C2CCCCC2)c2cccc(OCC(=O)O)c2)cc1OC [Compound A22, 2-(3-((R)-1-((S)-1-((S)-2-cyclohexyl-2-(3,4,5-trimethoxyphenyl)acetyl)piperidine-2-carboxamido)-3-(3,4-dimethoxyphenyl)propyl)phenoxy)acetic acid] |  |  | 0.1 to 1 | ++ (>50 ++)
2 | COc1ccc(CCC(OC(=O)[C@@H]2CCCCN2C(=O)C(NC(=O)C2N=CN=N2)C2CCCCC2)c2cccc(OCC(=O)O)c2)cc1OC (stereo partly drawn) [Compound A27, 2-(3-(1-(((2S)-1-(2-cyclohexyl-2-(3H-1,2,4-triazole-3-carboxamido)acetyl)piperidine-2-carbonyl)oxy)-3-(3,4-dimethoxyphenyl)propyl)phenoxy)acetic acid] |  |  | 10 to 50 | + (>5 +)
3 | COc1cc([C@@H](C(=O)N2CCCC[C@H]2C(=O)NC2(C(=O)NCC(N)=O)CCCC2)C2CCCCC2)cc(OC)c1OC [Compound B33, (S)-N-(1-((2-amino-2-oxoethyl)carbamoyl)cyclopentyl)-1-((S)-2-cyclohexyl-2-(3,4,5-trimethoxyphenyl)acetyl)piperidine-2-carboxamide] | 1 to 10 | +++ (>500 +++) |  | 
4 | COc1cc([C@@H](C(=O)N2CCCC[C@H]2C(=O)N[C@@H](C)C(N)=O)C2CCCCC2)cc(OC)c1OC [Compound B01, (S)-N-((S)-1-amino-1-oxopropan-2-yl)-1-((S)-2-cyclohexyl-2-(3,4,5-trimethoxyphenyl)acetyl)piperidine-2-carboxamide] | 1 to 10 | ++ (>50 ++) |  | 
5 | COc1cc([C@@H](C(=O)N2CCCC[C@H]2C(=O)N[C@H](C(N)=O)C(C)C)C2CCCCC2)cc(OC)c1OC [Compound B03, (S)-N-((S)-1-amino-3-methyl-1-oxobutan-2-yl)-1-((S)-2-cyclohexyl-2-(3,4,5-trimethoxyphenyl)acetyl)piperidine-2-carboxamide] | 10 to 50 | + (>5 +) |  | 
6 | C=CC[C@H](C(=O)N1CCCC[C@H]1C(=O)OC(CCCc1cccnc1)CCCc1cccnc1)c1cc(OC)c(OC)c(OC)c1 [Compound A04, (S)-1,7-di(pyridin-3-yl)heptan-4-yl 1-((S)-2-(3,4,5-trimethoxyphenyl)pent-4-enoyl)piperidine-2-carboxylate] |  |  | 10 to 50 | + (>5 +)
7 | COc1ccc(CCC(NC(=O)[C@@H]2CCCCN2C(=O)[C@H](c2cc(OC)c(OC)c(OC)c2)[C@@H]2C=CCCC2)c2cccc(OCC(=O)O)c2)cc1OC (stereo partly drawn) [Compound A16, 2-(3-((R)-1-((S)-1-((S)-2-((R)-Cyclohex-2-en-1-yl)-2-(3,4,5-trimethoxyphenyl)acetyl)piper-idine-2-carboxamido)-3-(3,4-dimethoxyphenyl)propyl)phenoxy) acetic acid] |  |  | 0.1 to 1 | ++ (>50 ++)
8 | COc1cc([C@@H](C(=O)N2CCCC[C@H]2C(=O)N[C@@H](CCc2ccccc2)C(N)=O)C2CCCCC2)cc(OC)c1OC [Compound B08, (S)-N-((S)-1-amino-1-oxo-4-phenylbutan-2-yl)-1-((S)-2-cyclohexyl-2-(3,4,5-trimethoxyphenyl)acetyl)piperidine-2-carboxamide] | 1 to 10 | ++ (>50 ++) |  | 
9 | COc1cc([C@@H](C(=O)N2CCCC[C@H]2C(=O)N[C@@H](CC2CCCCC2)C(N)=O)C2CCCCC2)cc(OC)c1OC [Compound B07, (S)-N-((S)-1-amino-3-cyclohexyl-1-oxopropan-2-yl)-1-((S)-2-cyclohexyl-2-(3,4,5-trimethoxyphenyl)acetyl)piperidine-2-carboxamide] | 10 to 50 | + (>5 +) |  | 
10 | COc1ccc(CCC(OC(=O)[C@@H]2CCCCN2C(=O)C(NC(=O)c2ccccn2)C2CCCCC2)c2cccc(OCC(=O)O)c2)cc1OC (stereo partly drawn) [Compound A25, 2-(3-(1-(((2S)-1-(2-cyclohexyl-2-(picolinamido)acetyl)piperidine-2-carbonyl)oxy)-3-(3,4-dimethoxyphenyl)propyl)phenoxy) acetic acid] |  |  | 10 to 50 | + (>5 +)
11 | COc1ccc(CC[C@@H](OC(=O)[C@@H]2CCCCN2C(=O)[C@@H](CC2CC2)c2cc(OC)c(OC)c(OC)c2)c2cccc(OCC(=O)O)c2)cc1OC [Reference A07, 2-(3-((R)-1-(((S)-1-((S)-3-cyclopropyl-2-(3,4,5-trimethoxyphenyl)propanoyl)piperidine-2-carbonyl)oxy)-3-(3,4-dimethoxyphenyl)propyl)phenoxy)acetic acid] |  |  | 10 to 50 | not selective (<5 not selective)

Second part, the compound after the results:

Row | Ki (FKBP51; compounds B01-C25) [µM] | Ki(FKBP51)/Ki(FKBP52) (FKBP52; compounds B01-C25) | Ki (FKBP51; [1]) [µM] | Ki(FKBP51)/Ki(FKBP52) (FKBP52; [2]) | Structure (SMILES)
12 | 1 to 10 | +++ (>500 +++) |  |  | COc1cc([C@@H](C(=O)N2CCCC[C@H]2C(=O)OC2CC=CC2)C2CCCCC2)cc(OC)c1OC [Compound C14, (S)-cyclopent-3-en-1-yl-1-((S)-2-cyclohexyl-2-(3,4,5-trimethoxyphenyl)acetyl) piperidine-2-carboxylate]
13 | 1 to 10 | +++ (>500 +++) |  |  | COc1cc([C@@H](C(=O)N2CCCC[C@H]2C(=O)OC2CCOCC2)C2CCCCC2)cc(OC)c1OC [Compound C12, (S)-tetrahydro-2H-pyran-4-yl-1-((S)-2-cyclohexyl-2-(3,4,5-trimethoxyphenyl)acetyl)piperidine-2-carboxylate]
14 | 1 to 10 | +++ (>500 +++) |  |  | COc1cc([C@@H](C(=O)N2CCCC[C@H]2C(=O)OC2CCCC2)C2CCCCC2)cc(OC)c1OC [Compound C13, (S)-cyclopentyl-1-((S)-2-cyclohexyl-2-(3,4,5-trimethoxyphenyl)acetyl)piperidine-2-carboxylate]
15 | 1 to 10 | ++ (>50 ++) |  |  | COC(=O)[C@@H]1CCCCN1C(=O)[C@H](c1cc(OC)c(OC)c(OC)c1)C1CCCCC1 [Compound C01, (S)-methyl 1-((S)-2-cyclohexyl-2-(3,4,5-trimethoxyphenyl)acetyl)piperidine-2-carboxylate]
16 | 0.1 to 1 | ++++ (>5000 ++++) |  |  | COc1cc([C@@H](C(=O)N2CCCC[C@H]2C(=O)NC2(C(N)=O)CCCC2)C2CCCCC2)cc(OC)c1OC [Compound B28, (S)-N-(1-carbamoylcyclopentyl)-1-((S)-2-cyclohexyl-2-(3,4,5-trimethoxyphenyl)acetyl)piperidine-2-carboxamide]
17 | 1 to 10 | +++ (>500 +++) |  |  | COc1cc([C@@H](C(=O)N2CCCC[C@H]2C(=O)OCCO)C2CCCCC2)cc(OC)c1OC [Compound C20, (S)-2-hydroxyethyl-1-((S)-2-cyclohexyl-2-(3,4,5-trimethoxyphenyl)acetyl)piperidine-2-carboxylate]
18 | 1 to 10 | ++ (>50 ++) |  |  | COc1cc([C@@H](C(=O)N2CCCC[C@H]2C(=O)NC2(C(N)=O)CCCCC2)C2CCCCC2)cc(OC)c1OC [Compound B31, (S)-N-(1-carbamoylcyclohexyl)-1-((S)-2-cyclohexyl-2-(3,4,5-trimethoxyphenyl)acetyl)piperidine-2-carboxamide]
19 | 10 to 50 | ++ (>50 ++) |  |  | CCNC(=O)[C@@H]1CCCCN1C(=O)[C@H](c1cc(OC)c(OC)c(OC)c1)C1CCCCC1 [Compound C05, (S)-1-((S)-2-cyclohexyl-2-(3,4,5-trimethoxyphenyl)acetyl)-N-ethylpiperidine-2-carboxamide]
20 | 0.1 to 1 | +++ (>500 +++) |  |  | COc1cc([C@@H](C(=O)N2CCCC[C@H]2C(=O)OC(C)C)C2CCCCC2)cc(OC)c1OC [Compound C04, (S)-isopropyl 1-((S)-2-cyclohexyl-2-(3,4,5-trimethoxyphenyl)acetyl)piperidine-2-carboxylate]
